ChEMBL document CHEMBL1127848, “Three-dimensional quantitative structure-activity relationship of human immunodeficiency virus (I) protease inhibitors. 2. Predictive power using limited exploration of alternate binding modes” (J Med Chem, 1994)

biological target: Human immunodeficiency virus type 1 protease (Human immunodeficiency virus 1, UniProt Q72874); assay: Inhibitory activity against HIV-1 Protease

IC50 [µM] | Compound
0.543 | CCCNC(=O)N(CC(C)C)CC(O)[C@H](Cc1ccccc1)NC(=O)[C@H](CC(N)=O)NC(=O)OCc1ccccc1 (stereo not given in full)
0.54 | CC(C)[C@@H](C(=O)N[C@H]1Cc2ccccc2[C@H]1O)[C@@H](O)[C@H](O)[C@H](CC1CCCCC1)NC(=O)c1ncccc1OCOc1ccccc1
0.0495 | CC[C@H](C)[C@H](NC(=O)[C@H](C(C)C)[C@@H](O)[C@H](O)[C@H](CC1CCCCC1)NC(=O)C1CCCCC1)C(=O)NCc1ccccn1
0.0112 | CC[C@H](C)[C@H](NC(=O)[C@H](C(C)C)[C@@H](O)[C@H](O)[C@H](CC1CCCCC1)NC(=O)c1ccccc1OCSc1ccccc1)C(=O)NCc1nc2ccccc2[nH]1
0.54 | CC(C)[C@@H](C(=O)N[C@H]1Cc2ccccc2[C@H]1O)[C@@H](O)[C@H](O)[C@H](CC1CCCCC1)NC(=O)c1ccccc1OCOc1ccccc1
0.45 | CC(C)[C@@H](C(=O)N[C@H]1Cc2ccccc2[C@H]1O)[C@@H](O)[C@H](O)[C@H](CC1CCCCC1)NC(=O)c1ccccc1OCSc1ccccc1
0.019 | CC(C)(C)NC(=O)N(Cc1ccccc1)CC(O)[C@H](Cc1ccccc1)NC(=O)[C@H](CC(N)=O)NC(=O)OCc1ccccc1 (stereo not given in full)
0.108 | CC[C@H](C)[C@H](NC(=O)[C@H](C(C)C)[C@@H](O)[C@H](O)[C@H](CC1CCCCC1)NC(=O)c1cccc(C)c1OCOc1ccccc1)C(=O)NCc1nc2ccccc2[nH]1
2.4 | CC(C)[C@@H](C(=O)N[C@H]1Cc2ccccc2[C@H]1O)[C@@H](O)[C@H](O)[C@H](CC1CCCCC1)NC(=O)c1ncccc1OCSc1ccccc1
0.00601 | CC(C)CN(CC(O)[C@H](Cc1ccccc1)NC(=O)[C@H](CC(N)=O)NC(=O)c1ccc2ccccc2n1)C(=O)NC(C)(C)C (stereo not given in full)
0.019 | CC(C)(C)NC(=O)N(Cc1ccncc1)CC(O)[C@H](Cc1ccccc1)NC(=O)[C@H](CC(N)=O)NC(=O)c1ccc2ccccc2n1 (stereo not given in full)
0.005 | CC(C)(C)NC(=O)N(CC(O)[C@H](Cc1ccccc1)NC(=O)[C@H](CC(N)=O)NC(=O)c1ccc2ccccc2n1)C1CCCCC1 (stereo not given in full)
0.003 | CC(C)CCN(CC(O)[C@H](Cc1ccccc1)NC(=O)[C@H](CC(N)=O)NC(=O)c1ccc2ccccc2n1)C(=O)NC(C)(C)C (stereo not given in full)
0.036 | CC(C)[C@@H](C(=O)N[C@H]1Cc2ccccc2[C@H]1O)[C@@H](O)[C@H](O)[C@H](CC1CCCCC1)NC(=O)c1ccccc1
0.54 | CC[C@H](C)[C@H](NC(=O)[C@H](C(C)C)C(O)[C@H](O)[C@H](CC1CCCCC1)NC(=O)c1ncccc1OCOc1ccccc1)C(=O)NCc1nc2ccccc2[nH]1 (stereo not given in full)
0.018 | CC[C@H](C)[C@H](NC(=O)[C@H](C(C)C)C(O)[C@H](O)[C@H](CC1CCCCC1)NC(=O)c1ccccc1OCOc1ccccc1)C(=O)NCc1nc2ccccc2[nH]1 (stereo not given in full)
0.003 | CC(C)(C)NC(=O)N(Cc1ccccc1)CC(O)[C@H](Cc1ccccc1)NC(=O)[C@H](CC(N)=O)NC(=O)c1ccc2ccccc2n1 (stereo not given in full)
0.315 | CC[C@H](C)[C@H](NC(=O)[C@H](C(C)C)[C@@H](O)[C@H](O)[C@H](CC1CCCCC1)NC(=O)c1ncccc1OCSc1ccccc1)C(=O)NCc1nc2ccccc2[nH]1
0.029 | CC(C)(C)NC(=O)N(CC(O)[C@H](Cc1ccccc1)NC(=O)[C@H](CC(N)=O)NC(=O)OCc1ccccc1)C1CCCCC1 (stereo not given in full)
0.0809 | CC[C@H](C)[C@H](NC(=O)[C@H](C(C)C)[C@@H](O)[C@H](O)[C@H](CC1CCCCC1)NC(=O)c1ccccc1)C(=O)NCc1nc2ccccc2[nH]1

Compound | IC50 [µM]
CC(c1ccccc1)N(CC(O)[C@H](Cc1ccccc1)NC(=O)[C@H](CC(N)=O)NC(=O)OCc1ccccc1)C(=O)NC(C)(C)C (stereo not given in full) | 5.09
CCNC(=O)N(CC(C)C)CC(O)[C@H](Cc1ccccc1)NC(=O)[C@H](CC(N)=O)NC(=O)OCc1ccccc1 (stereo not given in full) | 0.33
CNC(=O)N(CC(C)C)CC(O)[C@H](Cc1ccccc1)NC(=O)[C@H](CC(N)=O)NC(=O)OCc1ccccc1 (stereo not given in full) | 1.5
CCCCNC(=O)N(CC(C)C)CC(O)[C@H](Cc1ccccc1)NC(=O)[C@H](CC(N)=O)NC(=O)c1ccc2ccccc2n1 (stereo not given in full) | 0.126
CC(C)CCN(CC(O)[C@H](Cc1ccccc1)NC(=O)[C@H](CC(N)=O)NC(=O)OCc1ccccc1)C(=O)NC(C)(C)C (stereo not given in full) | 0.013
CC(C)CN(CC(O)[C@H](Cc1ccccc1)NC(=O)[C@H](CC(N)=O)NC(=O)OCc1ccccc1)C(=O)NC(C)(C)C (stereo not given in full) | 0.035
CCCCNC(=O)N(CC(C)C)CC(O)[C@H](Cc1ccccc1)NC(=O)[C@H](CC(N)=O)NC(=O)OCc1ccccc1 (stereo not given in full) | 0.942
C[C@H](c1ccccc1)N(CC(O)[C@H](Cc1ccccc1)NC(=O)[C@H](CC(N)=O)NC(=O)OCc1ccccc1)C(=O)NC(C)(C)C (stereo not given in full) | 6.5
CC(C)(C)NC(=O)N(Cc1ccncc1)CC(O)[C@H](Cc1ccccc1)NC(=O)[C@H](CC(N)=O)NC(=O)OCc1ccccc1 (stereo not given in full) | 0.105
CC(C)CN(CC(O)[C@H](Cc1ccccc1)NC(=O)[C@H](CC(N)=O)NC(=O)OCc1ccccc1)C(=O)NC(C)C (stereo not given in full) | 0.26
